Experimental data: patent US9512120B2, “Microbicidally active imidazopyridine derivatives” (Syngenta Participations AG, priority 2013, dated 2016)

Assays:
[1] = system: Botryotinia fuckeliana (Botrytis cinerea); test: Botryotinia fuckeliana (Botrytis cinerea) / liquid culture (gray mould); type: cell-based; conditions: Vogels broth, 24° C., 3-4 days after application, read-out: control of Botryotinia fuckeliana (inhibition of growth, photometric)
Procedure, shortened: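 Test compound was applied at 200 ppm in DMSO, then Vogels nutrient broth containing cryo-stored B. cinerea conidia was added. Photometric growth-inhibition reading followed after 3-4 days at 24 °C.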

[2] = system: Mycosphaerella graminicola (Septoria tritici); test: Mycosphaerella graminicola (Septoria tritici) / liquid culture (Septoria blotch); type: cell-based; conditions: Zymoseptoria tritici, PDB, 24° C., 4-5 days after application, read-out: control of Mycosphaerella graminicola (inhibition of growth, photometric)
Procedure, shortened: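 Growth inhibition was read photometrically after 4–5 days at 24 °C. The test compound was applied at 200 ppm from DMSO solution, then PDB broth seeded with conidia taken straight from cryogenic storage was added.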

[3] = system: Gaeumannomyces graminis; test: Gaeumannomyces graminis / liquid culture (take-all of cereals); type: cell-based; conditions: PDB, 24° C., 4-5 days after application, read-out: control of Gaeumannomyces graminis (inhibition of growth, photometric)
Procedure: (§1) Gaeumannomyces graminis/Liquid Culture (Take-all of Cereals): Mycelial fragments of the fungus from cryogenic storage were directly mixed into nutrient broth (PDB potato dextrose broth). After placing a DMSO solution of test compound into a 96-well microtiter plate at an application rate of 200 ppm, the nutrient broth Cp.33, containing the fungal spores is added. The test plates were incubated at 24° C. and the inhibition of growth was determined photometrically 4-5 days after application.

[4] = system: Thanatephorus cucumeris (Rhizoctonia solani); test: Thanatephorus cucumeris (Rhizoctonia solani) / liquid culture (foot rot, damping-off); type: cell-based; conditions: PDB, 24° C., 3-4 days after application, read-out: control of Thanatephorus cucumeris (inhibition of growth, photometric)
Procedure, shortened: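 At 200 ppm, compounds in DMSO were combined with fresh liquid-culture mycelia in PDB and kept at 24° C; photometric measurement of growth inhibition after 3-4 days.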

[5] = system: Puccinia recondita f. sp. Tritici; test: Puccinia recondita f. sp. tritici / wheat / leaf disc preventative (brown rust); type: in vivo; conditions: foliar, wheat leaf segments cv Kanzler, inoculated 1 day after application, assessed 7-9 days after application, read-out: control of Puccinia recondita f. sp. Tritici (percent disease control compared to untreated)
Procedure, shortened: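 Preventative test: percent disease control relative to untreated leaf segments was assessed 7-9 days post-application. Wheat (cv Kanzler) leaf discs were treated at 200 ppm and spore-inoculated 1 day afterwards. Discs were held at 19° C and 75% relative humidity under a 12/12 h light cycle.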

[6] = system: Phaeosphaeria nodorum (Septoria nodorum); test: Phaeosphaeria nodorum (Septoria nodorum) / wheat / leaf disc preventative (glume blotch); type: in vivo; conditions: Parastagonospora nodorum, foliar, wheat leaf segments cv Kanzler, inoculated 2 days after application, assessed 5-7 days after application, read-out: control of Phaeosphaeria nodorum (percent disease control compared to untreated)
Procedure: Phaeosphaeria nodorum (Septoria nodorum)/Wheat/Leaf Disc Preventative (Glume Blotch): Wheat leaf segments cv Kanzler were placed on agar in a 24-well plate and sprayed with formulated test compound diluted in water at an application rate of 200 ppm. The leaf disks are inoculated with a spore suspension of the fungus 2 days after application. The inoculated test leaf disks are incubated at 20° C. and 75% relative humidity under a light regime of 12/12 h (light/dark) in a climate cabinet and the activity of a compound is assessed as percent disease control compared to untreated when an appropriate level of disease damage appears in untreated check leaf disks (5-7 days after application).

[7] = system: Pyrenophora teres; test: Pyrenophora teres / barley / leaf disc preventative (net blotch); type: in vivo; conditions: foliar, barley leaf segments cv Hasso, inoculated two days after application, assessed 5-7 days after application, read-out: control of Pyrenophora teres (disease control compared to untreated)
Procedure, shortened: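 Preventative leaf-disc test: 200 ppm spray, then spore inoculation after two days on barley cv Hasso segments. Incubation 20 °C, 65% relative humidity, 12 h light/12 h dark; efficacy rated against untreated checks at 5-7 days post-application.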

[8] = system: Mycosphaerella arachidis (Cercospora arachidicola); test: Mycosphaerella arachidis (Cercospora arachidicola) / liquid culture (early leaf spot); type: cell-based; conditions: PDB, 24° C., 4-5 days after application, read-out: control of Mycosphaerella arachidis (inhibition of growth, photometric)
Procedure: Mycosphaerella Arachidis (Cercospora arachidicola)/Liquid Culture (Early Leaf Spot): Conidia of the fungus from cryogenic storage were directly mixed into nutrient broth (PDB potato dextrose broth). After placing a DMSO solution of test compound into a 96-well microtiter plate at an application rate of 200 ppm, the nutrient broth containing the fungal spores was added. The test plates are incubated at 24° C. and the inhibition of growth was determined photometrically 4-5 days after application.

[9] = system: Sclerotinia sclerotiorum; test: Sclerotinia sclerotiorum liquid culture (cottony rot / white mold); type: cell-based; conditions: PDB, 24° C., 3-4 days after application, read-out: control of Sclerotinia sclerotiorum (inhibition of growth, photometric)
Procedure: Sclerotinia sclerotiorum (Cottony Rot/White Mold): Mycelia fragments of a newly grown liquid culture of the fungus were directly mixed into nutrient broth (PDB potato dextrose broth). After placing a (DMSO) solution of test compound into a microtiter plate (96-well format) the nutrient broth containing the fungal material was added. The test plates are incubated at 24° C. and the inhibition of growth was determined photometrically 3-4 days after application.

[10] = system: Glomerella lagenarium (Colletotrichum lagenarium); test: Glomerella lagenarium (Colletotrichum lagenarium) / liquid culture (anthracnose); type: cell-based; conditions: Colletotrichum orbiculare, PDB, 24° C., 3-4 days after application, read-out: control of Glomerella lagenarium (inhibition of growth, photometric)
Procedure: as §1, with “Glomerella lagenarium (Colletotrichum lagenarium)/Liquid” for “Gaeumannomyces graminis/Liquid”, “(Anthracnose): Conidia” for “(Take-all of Cereals): Mycelial fragments”, “broth” for “broth Cp.33,”, “was” for “is”, “is measured” for “was determined”, “3-4” for “4-5”

[11] = system: Monographella nivalis (Microdochium nivale); test: Monographella nivalis (Microdochium nivale) / liquid culture (foot rot cereals); type: cell-based; conditions: PDB, 24° C., 4-5 days after application, read-out: control of Monographella nivalis (inhibition of growth, photometric)
Procedure: as §1, with “Monographella nivalis (Microdochium nivale)/Liquid” for “Gaeumannomyces graminis/Liquid”, “(Foot Rot” for “(Take-all of”, “Conidia” for “Mycelial fragments”, “broth” for “broth Cp.33,”, “was” for “is”

melting point [°C]	Structure (SMILES)	inhibition at 20 ppm [1] [%]	inhibition at 20 ppm [2] [%]	inhibition at 20 ppm [3] [%]	inhibition at 20 ppm [4] [%]	pest or weed control at 200 ppm [5] [%]	pest or weed control at 200 ppm [6] [%]	pest or weed control at 200 ppm [7] [%]	inhibition at 20 ppm [8] [%]	inhibition at 20 ppm [9] [%]	inhibition at 20 ppm [10] [%]	inhibition at 20 ppm [11] [%]
275 to 277	CCn1c(-n2ncnc2N)nc2cncc(-c3ccc(F)cc3)c21 [Compound 29, 2-[1-ethyl-7-(4-fluorophenyl)imidazo[4,5-c]pyridin-2-yl]-1,2,4-triazol-3-amine]	≥ 80	≥ 80	≥ 80	≥ 80							
	CCCC=Cc1cncc2nc(-n3ncnc3N)n(CC)c12 [Compound 68, 2-(1-ethyl-7-pent-1-enylimidazo[4,5-c]pyridin-2-yl)-1,2,4-triazol-3-amine]	≥ 80	≥ 80	≥ 80	≥ 80	≥ 80	≥ 80	≥ 80	≥ 80	≥ 80		
198 to 203	CCc1nc(N)n(-c2nc3cnccc3n2C2CCCCC2)n1 [Compound 7, 2-(1-cyclohexylimidazo[4,5-c]pyridin-2-yl)-5-ethyl-1,2,4-triazol-3-amine]										≥ 80	
274 to 278	CCn1c(-n2ncnc2N)nc2c(Cl)ncc(-c3ccccc3C)c21 [Example P7, 2-[4-chloro-1-ethyl-7-(o-tolyl)imidazo[4,5-c]pyridin-2-yl]-1,2,4-triazol-3-amine]											
205 to 209	CCn1c(-n2ncnc2N)nc2cncc(C(=O)C=Cc3ccc(F)cc3)c21 [Compound 108, 1-[2-(5-amino-1,2,4-triazol-1-yl)-1-ethylimidazo[4,5-c]pyridin-7-yl]-3-(4-fluorophenyl)prop-2-en-1-one]		≥ 80	≥ 80	≥ 80			≥ 80				
207 to 208	CCCn1c(-n2ncnc2N)nc2cncc(Br)c21 [Compound 110, 2-(7-bromo-1-propylimidazo[4,5-c]pyridin-2-yl)-1,2,4-triazol-3-amine]	≥ 80	≥ 80		≥ 80	≥ 80		≥ 80				
217 to 218	Nc1ncnn1-c1nc2cncc(Br)c2n1C1CCCCC1 [Compound 112, 2-(7-bromo-1-cyclohexylimidazo[4,5-c]pyridin-2-yl)-1,2,4-triazol-3-amine]										≥ 80	
	C=C(Cl)CO/N=C(\C)c1cncc2nc(-n3ncnc3N)n(CC)c12 [Compound 152]		≥ 80		≥ 80			≥ 80	≥ 80		≥ 80	
222 to 225	Nc1nc(-c2ccccc2)nn1-c1nc2cnccc2n1C1CCCCC1 [Example P1, 2-(1-cyclohexylimidazo[4,5-c]pyridin-2-yl)-5-phenyl-1,2,4-triazol-3-amine]											
240 to 244	Cn1c(-n2ncnc2N)nc2cnccc21 [Compound 14, 2-(1-methylimidazo[4,5-c]pyridin-2-yl)-1,2,4-triazol-3-amine]			≥ 80				≥ 80				
	CCn1c(-n2ncnc2N)nc2cncc(/C(C)=N/OC/C=C\Cl)c21 [Compound 171]	≥ 80	≥ 80	≥ 80	≥ 80		≥ 80	≥ 80		≥ 80	≥ 80	≥ 80
247 to 252	CCn1c(-n2ncnc2N)nc2cncc(C=Cc3ccccc3)c21 [Compound 21, 2-[1-ethyl-7-(2-phenylethenyl)imidazo[4,5-c]pyridin-2-yl]-1,2,4-triazol-3-amine]		≥ 80	≥ 80	≥ 80							
220 to 226	CCn1c(-n2ncnc2N)nc2cncc(C(C)O)c21 (stereo not drawn) [Example P8, 1-[2-(5-amino-1,2,4-triazol-1-yl)-1-ethyl-imidazo[4,5-c]pyridin-7-yl]ethanol]											
	CCn1c(-n2ncnc2N)nc2cncc(-c3ccccc3C)c21 [Compound 72, 2-[1-ethyl-7-(2-methylphenyl)imidazo[4,5-c]pyridin-2-yl]-1,2,4-triazol-3-amine]	≥ 80	≥ 80		≥ 80	≥ 80	≥ 80	≥ 80	≥ 80			
138 to 149	CCn1c(-n2ncnc2N)nc2cncc(C(C)=NOCc3ccccn3)c21 [Compound 142]			≥ 80	≥ 80			≥ 80				
215 to 216	C=CCn1c(-n2ncnc2N)nc2cnccc21 [Compound 17, 2-(1-prop-2-enylimidazo[4,5-c]pyridin-2-yl)-1,2,4-triazol-3-amine]	≥ 80	≥ 80	≥ 80	≥ 80	≥ 80		≥ 80				
	CCn1c(-n2ncnc2N)nc2cncc(-c3ccc(OC)cc3Cl)c21 [Compound 94, 2-[7-(2-chloro-4-methoxyphenyl)-1-ethylimidazo[4,5-c]pyridin-2-yl]-1,2,4-triazol-3-amine]	≥ 80	≥ 80	≥ 80	≥ 80	≥ 80	≥ 80	≥ 80		≥ 80	≥ 80	≥ 80
212 to 215	Cc1nc(N)n(-c2nc3cnccc3n2C2CCCCC2)n1 [Compound 5, 2-(1-cyclohexylimidazo[4,5-c]pyridin-2-yl)-5-methyl-1,2,4-triazol-3-amine]			≥ 80				≥ 80				
